Test system: Human immunodeficiency virus 1
Experiment: Ratio of EC50 for test compound to EC50 for 4-[4-[[2-(4-cyanoanilino)pyrimidin-4-yl]amino]-3,5-dimethyl-phenyl]benzonitrile against HIV1 3B infected in human MT4 cells incubated for 5 days by MTT assay
Format: functional

With `N#Cc1ccc(Nc2nc(Oc3ccc(-c4ccc(C#N)cc4)c(F)c3F)c3sccc3n2)cc1` the “Ratio EC50” value was 14.

Reference: ChEMBL document CHEMBL4354822, “Ligand-Based Design of Nondimethylphenyl-Diarylpyrimidines with Improved Metabolic Stability, Safety, and Oral Pharmacokinetic Profiles” (J Med Chem, 2019)
